Laboratory results taken from patent US20110262497A1, “NOVEL EZETIMIBE FORMULATIONS” (LEK Pharmaceuticals D.D., priority 2008, published 2011).

Experiment: solubility of ezetimibe in water
Format: physicochemical

Compound: O=C1[C@H](CC[C@H](O)c2ccc(F)cc2)[C@@H](c2ccc(O)cc2)N1c1ccc(F)cc1 [ezetimibe, 1-(4-fluorophenyl)-3(R)-[3-(4-fluorophenyl)-3(S)-hydroxypropyl]-4(S)-(4-hydroxyphenyl)-2-azetidinone]
- solubility: < 10 µg/mL
